# Measurements as given in PMC10889769, “The Molecular and Functional Characterization of Sensory Neuron Membrane Protein 1b (SNMP1b) from Cyrtotrachelus buqueti (Coleoptera: Curculionidae)” (Insects, 2024).
# Target: T1, CbuqSNMP1b (Cyrtotrachelus buqueti, UniProt A0A9E9JN76)
# Experiment: Fluorescence competition binding assay with 1-NPN as fluorescent probe
# Settings: not given
# Description: 1-NPN and all of the other chemicals (the purity being at least more than 96%) used in the binding assays were purchased from Aladdin Biochemical Technology Co., Ltd. (Shanghai, China). The Lumina fluorescence spectrophotometer (Thermo Fisher Scientific, Waltham, MA, USA) was used to perform fluorescence binding assays with a 1 cm light path quartz cuvette at room temperature. All the slit widths for both excitation and emission were 10 nm. The 1-NPN and all the other chemicals were dissolved in methanol (HPLC-grade) to a final concentration of 1 mM. The binding constant of 1-NPN was determined by titrating a 2 μM solution of the CbuqSNMP1b protein with aliquots of 2–40 μM 1-NPN concentrations. The binding of 1-NPN was measured at an excitation wavelength of 337 nm. The scanning range was 360–560 nm at each concentration and the maximum fluorescence intensities were plotted against the free ligand concentration.
# T1 sequence (A0A9E9JN76 entry or part of it): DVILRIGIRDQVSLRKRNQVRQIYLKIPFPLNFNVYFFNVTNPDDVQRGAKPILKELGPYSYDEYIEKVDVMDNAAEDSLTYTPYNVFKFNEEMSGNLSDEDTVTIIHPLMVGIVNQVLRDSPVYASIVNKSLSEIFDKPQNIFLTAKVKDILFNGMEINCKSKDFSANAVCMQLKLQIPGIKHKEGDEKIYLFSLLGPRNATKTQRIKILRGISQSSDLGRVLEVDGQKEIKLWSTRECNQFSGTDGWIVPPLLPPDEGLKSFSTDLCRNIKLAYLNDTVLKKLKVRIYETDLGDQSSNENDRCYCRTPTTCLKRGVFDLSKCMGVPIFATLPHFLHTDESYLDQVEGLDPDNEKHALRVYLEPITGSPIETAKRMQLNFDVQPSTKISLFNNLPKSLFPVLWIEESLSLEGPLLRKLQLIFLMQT
row,SMILES,IC50 [µM]
1,Oc1ccccc1 [Phenol],24.1
2,C=C(C)[C@H]1CC=C(C)CC1 [(+)-Limonene],> 50
3,C=Cc1ccccc1 [Styrene],> 50
4,CC(C)=CCC/C(C)=C/CC/C(C)=C/CC/C=C(\C)CC/C=C(\C)CCC=C(C)C [Squalene],> 50
5,c1ccc2scnc2c1 [Benzothiazole],13.3
6,CCCCOC(=O)c1ccccc1C(=O)OCCCC [Dibutyl phthalate],10.4
7,Cc1cccc(C)c1 [M-xylene],> 50
8,C[C@@H]1CC[C@H]2C(C)(C)[C@H]3C[C@@]12CC[C@@]3(C)O [Cedrol],> 50

# Same assay, conditions: recombinant CbuqSNMP1b and 1-NPN both at 2 μM; displacement of 1-NPN; room temperature; read-out: IC50
row,IC50 [µM],SMILES
1,> 50,CCCCCC(=O)OCC [Ethyl hexanoate]
2,> 50,"CCCC/C=C/C=C/C=O [trans,trans-2,4-Nonadienal]"
3,> 50,CCCCCCCC(C)=O [2-Nonanone]
4,> 50,CCCCCCCCCCCCCCCC(=O)OC [Methyl hexadecanoate]
5,> 50,CCCCCCCCC=O [1-Nonanal]
6,> 50,CCCCCCCCCC=O [Decyl aldehyde]

# Target: T1, CbuqSNMP1b
# Experiment: Binding of 1-NPN to CbuqSNMP1b (fluorescence titration, Scatchard analysis)
# Settings: 2 μM CbuqSNMP1b titrated with 2–40 μM 1-NPN; Scatchard plot; read-out: dissociation constant (Kd) of the CbuqSNMP1b/1-NPN complex
# Description: Binding affinities of CbuqSNMP1b to 14 volatiles (Table 1) emitted by female adults of C. buqueti were measured with the fluorescence competition binding assays using N-phenyl-1-naphthylamine (1-NPN) as the fluorescent probe. 1-NPN and all of the other chemicals (the purity being at least more than 96%) used in the binding assays were purchased from Aladdin Biochemical Technology Co., Ltd. (Shanghai, China). The Lumina fluorescence spectrophotometer (Thermo Fisher Scientific, Waltham, MA, USA) was used to perform fluorescence binding assays with a 1 cm light path quartz cuvette at room temperature. All the slit widths for both excitation and emission were 10 nm. The 1-NPN and all the other chemicals were dissolved in methanol (HPLC-grade) to a final concentration of 1 mM. The binding constant of 1-NPN was determined by titrating a 2 μM solution of the CbuqSNMP1b protein with aliquots of 2–40 μM 1-NPN concentrations. The binding of 1-NPN was measured at an excitation wavelength of 337 nm. The scanning range was 360–560 nm at each concentration and the maximum fluorescence intensities were plotted against the free ligand concentration. […]
row,SMILES,Kd [µM]
1,"c1ccc(Nc2cccc3ccccc23)cc1 [1-NPN, N-phenyl-1-naphthylamine]",13.3
